Laboratory results published in ChEMBL document CHEMBL4251552, “Synthesis of piperazine sulfonamide analogs as diabetic-II inhibitors and their molecular docking study” (Eur J Med Chem, 2017).

Target: T1, Pancreatic alpha-amylase (Sus scrofa, UniProt P00690)
T1 sequence (P00690 whole entry): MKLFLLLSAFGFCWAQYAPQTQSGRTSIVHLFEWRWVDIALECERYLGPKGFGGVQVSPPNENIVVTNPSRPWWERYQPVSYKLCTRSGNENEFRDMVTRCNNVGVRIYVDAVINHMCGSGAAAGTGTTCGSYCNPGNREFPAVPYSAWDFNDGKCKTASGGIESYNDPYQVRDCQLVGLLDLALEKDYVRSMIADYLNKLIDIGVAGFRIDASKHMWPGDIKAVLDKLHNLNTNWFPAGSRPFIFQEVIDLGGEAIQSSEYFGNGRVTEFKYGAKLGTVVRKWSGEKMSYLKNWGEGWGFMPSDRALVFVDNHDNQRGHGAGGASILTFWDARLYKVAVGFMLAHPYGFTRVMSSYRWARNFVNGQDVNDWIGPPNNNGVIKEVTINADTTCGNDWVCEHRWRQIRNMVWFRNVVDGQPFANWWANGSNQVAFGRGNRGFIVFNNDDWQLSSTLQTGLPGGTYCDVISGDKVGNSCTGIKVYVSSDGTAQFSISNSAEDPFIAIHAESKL
Test: Inhibition of porcine pancreatic alpha-amylase using starch as substrate preincubated for 10 mins followed by substrate addition measured after 10 mins by dinitrosalicylic acid color reagent based assay

| Compound | IC50 |
| --- | --- |
| Cc1ccc(CN2CCN(S(=O)(=O)c3ccc(F)cc3)CC2)cc1 | 1.57 µM |
| Cc1ccc(CN2CCN(S(=O)(=O)c3ccc([N+](=O)[O-])cc3[N+](=O)[O-])CC2)cc1 | 2.93 µM |
| Cc1ccc(CN2CCN(S(=O)(=O)c3cc(Cl)c(Cl)cc3Cl)CC2)cc1 | 3.52 µM |
| COc1ccc(S(=O)(=O)N2CCN(Cc3ccc(C)cc3)CC2)cc1 | 2.06 µM |
| Cc1ccc(CN2CCN(S(=O)(=O)c3cccc([N+](=O)[O-])c3)CC2)cc1 | 2.75 µM |
| Cc1ccc(CN2CCN(S(=O)(=O)c3ccc([N+](=O)[O-])cc3)CC2)cc1 | 2.82 µM |
| Cc1ccc(CN2CCN(S(=O)(=O)c3cc(Cl)cc(Cl)c3)CC2)cc1 | 3.56 µM |
| Cc1ccc(CN2CCN(S(=O)(=O)c3ccc(Cl)cc3)CC2)cc1 | 2.35 µM |
| Cc1ccc(CN2CCN(S(=O)(=O)c3ccc(Cl)c(Cl)c3)CC2)cc1 | 2.98 µM |
| Cc1ccc(CN2CCN(S(=O)(=O)c3ccc(Br)cc3)CC2)cc1 | 2.12 µM |

Now from value to molecule:

| IC50 | Compound |
| --- | --- |
| 2.88 µM | Cc1ccc(CN2CCN(S(=O)(=O)c3cc(Cl)ccc3Cl)CC2)cc1 |
| 3.98 µM | Cc1ccc(CN2CCN(S(=O)(=O)c3ccccc3[N+](=O)[O-])CC2)cc1 |
| 2.88 µM | Cc1ccc(CN2CCN(S(=O)(=O)c3ccccc3C)CC2)cc1 |
| 3.05 µM | Cc1ccc(CN2CCN(S(=O)(=O)c3ccccc3F)CC2)cc1 |
| 3.2 µM | Cc1ccc(CN2CCN(S(=O)(=O)c3ccccc3Cl)CC2)cc1 |
| 3.14 µM | Cc1ccc(CN2CCN(S(=O)(=O)c3ccc(Cl)cc3Cl)CC2)cc1 |
| 2.67 µM | Cc1ccc(CN2CCN(S(=O)(=O)c3cccc(Cl)c3Cl)CC2)cc1 |
| 2.87 µM | Cc1ccc(CN2CCN(S(=O)(=O)c3ccc(C)cc3)CC2)cc1 |
| 3.45 µM | Cc1ccc(CN2CCN(S(=O)(=O)c3cccc(Br)c3)CC2)cc1 |
